For 6 compounds, IC50 results are on record in ChEMBL document CHEMBL5126642, “Triazine-Based Covalent DNA-Encoded Libraries for Discovery of Covalent Inhibitors of Target Proteins” (ACS Med Chem Lett, 2022).

For experiment [1], the target named is Tyrosine-protein kinase BTK (Homo sapiens, UniProt Q06187). The experiment in a line: Inhibition of BTK (unknown origin) using TK peptide as substrate incubated for 1 hr in presence of ATP by HTRF assay.
Experiment [2] has as its target T1, Tyrosine-protein kinase JAK3 (Homo sapiens, UniProt P52333).
T1 sequence (P52333 whole entry): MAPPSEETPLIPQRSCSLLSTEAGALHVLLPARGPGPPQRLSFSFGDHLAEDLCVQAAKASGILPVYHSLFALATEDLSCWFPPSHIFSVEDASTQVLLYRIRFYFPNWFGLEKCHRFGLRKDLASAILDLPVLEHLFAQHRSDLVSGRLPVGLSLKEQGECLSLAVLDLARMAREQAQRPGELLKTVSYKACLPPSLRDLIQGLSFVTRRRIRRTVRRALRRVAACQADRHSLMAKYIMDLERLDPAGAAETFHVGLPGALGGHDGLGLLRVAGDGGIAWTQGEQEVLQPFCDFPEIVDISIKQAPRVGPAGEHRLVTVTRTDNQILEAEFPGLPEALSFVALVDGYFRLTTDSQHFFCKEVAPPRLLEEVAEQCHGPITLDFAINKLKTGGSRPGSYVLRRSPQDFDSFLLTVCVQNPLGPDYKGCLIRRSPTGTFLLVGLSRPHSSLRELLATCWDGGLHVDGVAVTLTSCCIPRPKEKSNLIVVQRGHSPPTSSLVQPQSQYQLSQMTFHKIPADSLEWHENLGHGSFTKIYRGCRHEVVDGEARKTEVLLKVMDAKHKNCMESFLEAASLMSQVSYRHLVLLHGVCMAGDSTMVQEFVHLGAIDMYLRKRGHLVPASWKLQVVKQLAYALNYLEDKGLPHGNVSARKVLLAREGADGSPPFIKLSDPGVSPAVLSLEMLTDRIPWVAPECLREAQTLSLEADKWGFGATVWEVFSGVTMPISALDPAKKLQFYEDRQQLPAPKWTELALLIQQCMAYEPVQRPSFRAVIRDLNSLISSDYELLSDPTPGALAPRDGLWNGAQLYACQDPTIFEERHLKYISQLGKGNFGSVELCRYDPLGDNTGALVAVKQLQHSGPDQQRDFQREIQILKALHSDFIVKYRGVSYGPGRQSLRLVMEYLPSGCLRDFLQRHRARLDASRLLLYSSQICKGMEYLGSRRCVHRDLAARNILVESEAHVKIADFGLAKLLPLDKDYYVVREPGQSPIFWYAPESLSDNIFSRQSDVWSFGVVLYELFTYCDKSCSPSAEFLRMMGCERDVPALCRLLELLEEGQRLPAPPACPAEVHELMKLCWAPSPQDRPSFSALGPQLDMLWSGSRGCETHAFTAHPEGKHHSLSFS
The experiment in a line: Inhibition of JAK3 (unknown origin) using TK peptide as substrate incubated for 1 hr in presence of ATP by HTRF assay.

Experiment [3] has as its target Peptidyl-prolyl cis-trans isomerase NIMA-interacting 1 (Homo sapiens, UniProt Q13526). The experiment in a line: Inhibition of GST-tagged Pin1 (unknown origin) using Suc-AEPF-pNA peptide as substrate incubated for 3 hrs.

Tyrosine-protein kinase BTK, sequence (Q06187 whole entry): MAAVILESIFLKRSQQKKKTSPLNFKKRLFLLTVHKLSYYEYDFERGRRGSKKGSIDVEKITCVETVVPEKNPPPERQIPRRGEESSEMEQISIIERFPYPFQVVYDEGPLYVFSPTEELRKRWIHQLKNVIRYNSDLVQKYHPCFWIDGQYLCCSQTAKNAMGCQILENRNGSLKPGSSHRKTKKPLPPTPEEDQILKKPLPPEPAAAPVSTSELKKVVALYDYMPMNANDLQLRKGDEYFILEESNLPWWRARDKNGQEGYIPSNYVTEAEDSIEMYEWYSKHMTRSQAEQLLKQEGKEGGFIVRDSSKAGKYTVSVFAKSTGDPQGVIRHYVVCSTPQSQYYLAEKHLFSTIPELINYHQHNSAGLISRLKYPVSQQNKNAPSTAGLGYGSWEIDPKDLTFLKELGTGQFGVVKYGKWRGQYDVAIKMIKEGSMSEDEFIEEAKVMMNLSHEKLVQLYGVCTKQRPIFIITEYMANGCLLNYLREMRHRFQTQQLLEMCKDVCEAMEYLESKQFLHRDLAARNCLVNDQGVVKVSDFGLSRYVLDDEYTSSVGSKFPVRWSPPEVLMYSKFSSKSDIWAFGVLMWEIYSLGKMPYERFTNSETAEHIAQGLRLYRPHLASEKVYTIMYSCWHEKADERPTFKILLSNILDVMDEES
Peptidyl-prolyl cis-trans isomerase NIMA-interacting 1, sequence (Q13526 whole entry): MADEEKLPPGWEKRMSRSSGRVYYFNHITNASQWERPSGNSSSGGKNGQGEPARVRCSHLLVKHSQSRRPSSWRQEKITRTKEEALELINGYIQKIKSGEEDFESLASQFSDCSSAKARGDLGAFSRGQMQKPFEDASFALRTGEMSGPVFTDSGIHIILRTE

On to `CNc1nc(NCC(NC(=O)CCl)c2ccccc2)nc(Nc2cc(C(C)(C)C)[nH]n2)n1` (stereo not given), for which the IC50 in experiment [1] stood at 638 nM; in experiment [2], 32.6 nM.
Regarding `C=CC(=O)Nc1cccc(CNc2nc(NC)nc(Nc3cc(C(C)(C)C)[nH]n3)n2)c1`, the IC50 turned out to be 98.3 nM in experiment [1] and 6.16 nM in experiment [2].
The like results for `CNc1nc(NCc2cccc(NC(=O)CCl)c2)nc(Nc2cc(C(C)(C)C)[nH]n2)n1` were, in that order, 1900 nM and 8.97 nM.
In the case of `C=CC(=O)N1CC2CC1CN2c1nc(NC)nc(Nc2cc[nH]n2)n1` (stereo not given), the 50% inhibitory concentration (IC50) in experiment [1] is 16.1 nM; in experiment [2] it was 699 nM.
Take `CNc1nc(NC(c2ccccc2)c2cccc(S(C)(=O)=O)c2)nc(N2CCN(C(=O)CCl)CC2)n1` (stereo not given): the concentration for half-maximal inhibition (IC50) in experiment [3] came to 3200 nM.
In experiment [3], `CNc1nc(Nc2ccc3cn[nH]c3c2)nc(N2CC3CC2CN3C(=O)CCl)n1` (stereo not given) had an IC50 of 1690 nM.

What is called IC50 is the concentration that gives 50% inhibition.
